Assay results: patent US10287301B2 (Achillion Pharmaceuticals, Inc., priority 2015, dated 2019)
Where two headings read alike, the source gives them in different places.

Target: Human Factor D (Homo sapiens (Human), UniProt P00746)
Assay: Human Factor D Assay
Format: biochemical
In short: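 IC50 values derive from nonlinear regression of Factor D reaction rates against compound concentration. The enzyme, purified from human serum, is used at 80 nM final with a 5 min room-temperature compound preincubation in 50 mM Tris, 1M NaCl, pH 7.5, before 100 μM Z-L-Lys-SBzl plus 100 μM DTNB are added.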

[1] = Human Factor D assay of Example 8, Table 2, read-out: IC50
[2] = Table 3, Human Factor D 80 nM, substrate Z-L-Lys-SBzl, read-out: IC50 (Stars)

Chain of Human Factor D (P00746 26-253): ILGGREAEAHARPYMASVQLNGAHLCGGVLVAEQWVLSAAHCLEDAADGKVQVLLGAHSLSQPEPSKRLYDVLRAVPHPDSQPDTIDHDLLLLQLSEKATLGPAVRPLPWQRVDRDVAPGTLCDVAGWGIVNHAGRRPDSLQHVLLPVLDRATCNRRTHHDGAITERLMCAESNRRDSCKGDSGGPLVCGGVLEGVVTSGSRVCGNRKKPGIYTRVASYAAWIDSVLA

Compound	IC50 [1]	IC50 [2]
CC(=O)c1nn(CC(=O)N2C[C@H](F)C[C@H]2C(=O)Nc2cncc(C(F)(F)F)n2)c2ccc(-c3cnc4cc(C)nn4c3)cc12 [Compound 313, (2S,4R)-1-(2-(3-acetyl-5-(2-methylpyrazolo[1,5-a]pyrimidin-6-yl)-1H-indazol-1-yl)acetyl)-4-fluoro-N-(6-(trifluoromethyl)pyrazin-2-yl)pyrrolidine-2-carboxamide]	< 1000 nM	–
Cc1ncc(-c2cc3c(s2)c(C(N)=O)nn3CC(=O)N2C[C@H](F)C[C@H]2C(=O)Nc2cccc(-c3ccccc3Cl)c2F)cn1 [Compound 314, 1-(2-((2S,4R)-2-((2′-Chloro-2-fluoro-[1,1′-biphenyl]-3-yl)carbamoyl)-4-fluoropyrrolidin-1-yl)-2-oxoethyl)-5-(2-methylpyrimidin-5-yl)-1H-thieno[3,2-c]pyrazole-3-carboxamide]	< 1000 nM	–
CC(=O)c1nn(CC(=O)N2CC[C@@H](O)[C@H]2C(=O)Nc2cccc(Br)n2)c2ccc(-c3cnc(C)nc3)cc12 [Compound 315, (2S,3R)-1-(2-(3-acetyl-5-(2-methylpyrimidin-5-yl)-1H-indazol-1-yl)acetyl)-N-(6-bromopyridin-2-yl)-3-hydroxypyrrolidine-2-carboxamide]	< 1000 nM	–
COCCOCCOCCOCCOCCOc1ncc(-c2ccc3c(c2)c(C(C)=O)nn3CC(=O)N2C[C@H](F)C[C@H]2C(=O)Nc2cccc(Br)n2)cn1 [Compound 316]	< 1000 nM	–
CC(=O)c1nn(CC(=O)N2C[C@H](F)C[C@H]2C(=O)Nc2cncc(Br)n2)c2ccc(-c3cnc(C)nc3)cc12 [Compound 317, (2S,4R)-1-(2-(3-acetyl-5-(2-methylpyrimidin-5-yl)-1H-indazol-1-yl)acetyl)-N-(6-bromopyrazin-2-yl)-4-fluoropyrrolidine-2-carboxamide]	< 1000 nM	–
COc1cc2c(cc1-c1cnc(C)nc1)c(C(C)=O)cn2CC(=O)N1C[C@H](F)C[C@H]1C(=O)Nc1cccc(-c2ccccc2Cl)c1F [Compound 318, (2S,4R)-1-(2-(3-Acetyl-6-methoxy-5-(2-methylpyrimidin-5-yl)-1H-indol-1-yl)acetyl)-N-(2′-chloro-2-fluoro-[1,1′-biphenyl]-3-yl)-4-fluoropyrrolidine-2-carboxamide]	< 1000 nM	–
COc1cc2c(cc1-c1cnc(C)nc1)c(C(C)=O)cn2CC(=O)N1C[C@H](F)C[C@H]1C(=O)Nc1cccc(Br)n1 [Compound 319, (2S,4R)-1-(2-(3-Acetyl-6-methoxy-5-(2-methylpyrimidin-5-yl)-1H-indol-1-yl)acetyl)-N-(6-bromopyridin-2-yl)-4-fluoropyrrolidine-2-carboxamide]	< 1000 nM	–
CC(=O)c1cn(CC(=O)N2C[C@H](F)C[C@H]2C(=O)Nc2cccc(-c3ccccc3Cl)c2F)c2cc(O)c(-c3cnc(C)nc3)cc12 [Compound 320, (4R)-1-(2-(3-Acetyl-6-hydroxy-5-(2-methylpyrimidin-5-yl)-1H-indol-1-yl)acetyl)-N-(2′-chloro-2-fluoro-[1,1′-biphenyl]-3-yl)-4-fluoropyrrolidine-2-carboxamide]	< 1000 nM	–
CC(=O)c1nn(CC(=O)N2C[C@H](F)C[C@H]2C(=O)Nc2cccc(Br)n2)c2ccc(-c3cnc4nc(C)ccn34)cc12 [Compound 321, (2S,4R)-1-(2-(3-acetyl-5-(7-methylimidazo[1,2-a]pyrimidin-3-yl)-1H-indazol-1-yl)acetyl)-N-(6-bromopyridin-2-yl)-4-fluoropyrrolidine-2-carboxamide]	< 1000 nM	–
CC(=O)c1nn(CC(=O)N2C[C@H](F)C[C@H]2C(=O)Nc2cncc(Br)n2)c2ccc(-c3cnc4ccnn4c3)cc12 [Compound 322, (2S,4R)-1-(2-(3-acetyl-5-(pyrazolo[1,5-a]pyrimidin-6-yl)-1H-indazol-1-yl)acetyl)-N-(6-bromopyrazin-2-yl)-4-fluoropyrrolidine-2-carboxamide]	< 1000 nM	–
CC(=O)c1cn(CC(=O)N2C[C@H](F)C[C@H]2C(=O)Nc2cncc(Br)n2)c2ccc(-c3cnc4ccnn4c3)cc12 [Compound 323, (2S,4R)-1-(2-(3-acetyl-5-(pyrazolo[1,5-a]pyrimidin-6-yl)-1H-indol-1-yl)acetyl)-N-(6-bromopyrazin-2-yl)-4-fluoropyrrolidine-2-carboxamide]	< 1000 nM	–
CC(=O)c1nn(CC(=O)N2[C@@H]3C[C@@H]3C[C@H]2C(=O)Nc2cncc(Br)n2)c2ccc(-c3cnc4cc(C)nn4c3)cc12 [Compound 324, (1R,3S,5R)-2-(2-(3-acetyl-5-(2-methylpyrazolo[1,5-a]pyrimidin-6-yl)-1H-indazol-1-yl)acetyl)-N-(6-bromopyrazin-2-yl)-2-azabicyclo[3.1.0] hexane-3-carboxamide]	< 1000 nM	–
CC(=O)c1nn(CC(=O)N2C[C@H](F)C[C@H]2C(=O)Nc2cncc(Br)n2)c2ccc(-c3ccc4nc(C)nn4c3)cc12 [Compound 325, (2S,4R)-1-(2-(3-acetyl-5-(2-methyl-[1,2,4]triazolo[1,5-a]pyridin-6-yl)-1H-indazol-1-yl)acetyl)-N-(6-bromopyrazin-2-yl)-4-fluoropyrrolidine-2-carboxamide]	< 1000 nM	–
CC(=O)c1nn(CC(=O)N2C[C@H](F)C[C@H]2C(=O)Nc2cccc(-c3sccc3Cl)c2F)c2ccc(-c3cnc(C)nc3)cc12 [Compound 327, (2S,4R)-1-(2-(3-acetyl-5-(2-methylpyrimidin-5-yl)-1H-indazol-1-yl)acetyl)-N-(3-(3-chlorothiophen-2-yl)-2-fluorophenyl)-4-fluoropyrrolidine-2-carboxamide]	< 1000 nM	–
CC(=O)c1cn(CC(=O)N2C[C@H](F)C[C@H]2C(=O)Nc2cccc(Br)n2)c2cc(O)c(-c3cnc(C)nc3)cc12 [Compound 328, (4R)-1-(2-(3-Acetyl-6-hydroxy-5-(2-methylpyrimidin-5-yl)-1H-indol-1-yl)acetyl)-N-(6-bromopyridin-2-yl)-4-fluoropyrrolidine-2-carboxamide]	< 1000 nM	–
CC(=O)c1nn(CC(=O)N2CSC(C)(C)[C@H]2C(=O)NCc2cccc(Cl)c2F)c2ccc(-c3cnc(C)nc3)cc12 [Compound 329, (R)-3-(2-(3-acetyl-5-(2-methylpyrimidin-5-yl)-1H-indazol-1-yl)acetyl)-N-(3-chloro-2-fluorobenzyl)-5,5-dimethylthiazolidine-4-carboxamide]	1000 to 10000 nM	–
CC(=O)c1nn(CC(=O)N2C[C@H](F)C[C@H]2C(=O)Nc2cccc(OC(F)(F)F)n2)c2ccc(-c3cnc4cc(C)nn4c3)cc12 [Compound 330, (2S,4R)-1-(2-(3-acetyl-5-(2-methylpyrazolo[1,5-a]pyrimidin-6-yl)-1H-indazol-1-yl)acetyl)-4-fluoro-N-(6-(trifluoromethoxy)pyridin-2-yl)pyrrolidine-2-carboxamide]	< 1000 nM	–
CC(=O)c1cn(CC(=O)N2[C@@H]3C[C@@H]3C[C@H]2C(=O)Nc2cncc(Br)n2)c2ccc(-c3cnc4cc(C)nn4c3)cc12 [Compound 331, (1R,3S,5R)-2-(2-(3-acetyl-5-(2-methylpyrazolo[1,5-a]pyrimidin-6-yl)-1H-indol-1-yl)acetyl)-N-(6-bromopyrazin-2-yl)-2-azabicyclo[3.1.0] hexane-3-carboxamide]	< 1000 nM	–
CC(=O)c1nn(CC(=O)N2C[C@H](F)C[C@H]2C(=O)Nc2cc(C)cc(Br)n2)c2ccc(-c3cnc4cc(C)nn4c3)cc12 [Compound 332, (2S,4R)-1-(2-(3-acetyl-5-(2-methylpyrazolo[1,5-a]pyrimidin-6-yl)-1H-indazol-1-yl)acetyl)-N-(6-bromo-4-methylpyridin-2-yl)-4-fluoropyrrolidine-2-carboxamide]	< 1000 nM	–
CC(=O)c1cn(CC(=O)N2C[C@H](F)C[C@H]2C(=O)Nc2cccc(-c3ccccc3Cl)c2F)c2ccc(-c3cnc(O[C@@H]4CO[C@H]5[C@@H]4OC[C@H]5O)nc3)cc12 [Compound 333, (2S,4R)-1-(2-(3-acetyl-5-(2-(((3R,3aR,6R,6aR)-6-hydroxyhexahydrofuro [3,2-b]furan-3-yl)oxy)pyrimidin-5-yl)-1H-indol-1-yl)acetyl)-N-(2′-chloro-2-fluoro-[1,1′-biphenyl]-3-yl)-4-fluoropyrrolidine-2-carboxamide]	–	< 1000 nM
CC(=O)c1cn(CC(=O)N2C[C@H](F)C[C@H]2C(=O)Nc2cccc(Br)n2)c2ccc(-c3cnc(O[C@@H]4CO[C@H]5[C@@H]4OC[C@H]5O)nc3)cc12 [Compound 334, (2S,4R)-1-(2-(3-acetyl-5-(2-(((3R,3aR,6R,6aR)-6-hydroxyhexahydrofuro [3,2-b]furan-3-yl)oxy)pyrimidin-5-yl)-1H-indol-1-yl)acetyl)-N-(6-bromopyridin-2-yl)-4-fluoropyrrolidine-2-carboxamide]	–	< 1000 nM
CO[C@@H]1CO[C@H]2[C@@H]1OC[C@H]2Oc1ncc(-c2ccc3c(c2)c(C(C)=O)cn3CC(=O)N2C[C@H](F)C[C@H]2C(=O)Nc2cccc(-c3ccccc3Cl)c2F)cn1 [Compound 335]	–	< 1000 nM
CO[C@@H]1CO[C@H]2[C@@H]1OC[C@H]2Oc1ncc(-c2ccc3c(c2)c(C(C)=O)cn3CC(=O)N2C[C@H](F)C[C@H]2C(=O)Nc2cccc(Br)n2)cn1 [Compound 337, (2S,4R)-1-(2-(3-acetyl-5-(2-(((3R,3aR,6R,6aR)-6-methoxyhexahydrofuro [3,2-b]furan-3-yl)oxy)pyrimidin-5-yl)-1H-indol-1-yl)acetyl)-N-(6-bromopyridin-2-yl)-4-fluoropyrrolidine-2-carboxamide]	–	< 1000 nM
Cc1ncc(-c2ccc3c(c2)c(CC(N)=O)nn3CC(=O)N2C[C@H](F)C[C@H]2C(=O)Nc2cccc(Br)n2)cn1 [Compound 340, (2S,4R)-1-(2-(3-(2-amino-2-oxoethyl)-5-(2-methylpyrimidin-5-yl)-1H-indazol-1-yl)acetyl)-N-(6-bromopyridin-2-yl)-4-fluoropyrrolidine-2-carboxamide]	–	1000 to 10000 nM
CC(=O)c1nn(CC(=O)N2C[C@H](F)C[C@H]2C(=O)Nc2cccc(-c3cc(S(N)(=O)=O)ccc3Cl)c2F)c2ccc(-c3cnc(C)nc3)cc12 [Compound 341, (2S,4R)-1-(2-(3-Acetyl-5-(2-methylpyrimidin-5-yl)-1H-indazol-1-yl)acetyl)-N-(2′-chloro-2-fluoro-5′-sulfamoyl-[1,1′-biphenyl]-3-yl)-4-fluoropyrrolidine-2-carboxamide]	–	< 1000 nM
